From patent publication US20070249686A1, “Modulators of Crth-2 Receptor Activity for the Treatment of Prostaglandin D2 Mediated Diseases” (ASTRAZENECA AB, priority 2004, published 2007)

biological target: T1, CRTh2 (Homo sapiens, UniProt Q9Y5Y4); assay: Ligand binding assay: [3H]PGD2 binding to membranes of HEK cells expressing rhCRTh2/Gα16 (SPA beads); conditions: [3H]PGD2 displacement, HEK cell membranes containing CRTh2, SPA, 2 hours at room temperature
T1 construct: expressed in transfected cells; host or cells: HEK cells (membrane preparation)
T1 sequence (Q9Y5Y4 1-395): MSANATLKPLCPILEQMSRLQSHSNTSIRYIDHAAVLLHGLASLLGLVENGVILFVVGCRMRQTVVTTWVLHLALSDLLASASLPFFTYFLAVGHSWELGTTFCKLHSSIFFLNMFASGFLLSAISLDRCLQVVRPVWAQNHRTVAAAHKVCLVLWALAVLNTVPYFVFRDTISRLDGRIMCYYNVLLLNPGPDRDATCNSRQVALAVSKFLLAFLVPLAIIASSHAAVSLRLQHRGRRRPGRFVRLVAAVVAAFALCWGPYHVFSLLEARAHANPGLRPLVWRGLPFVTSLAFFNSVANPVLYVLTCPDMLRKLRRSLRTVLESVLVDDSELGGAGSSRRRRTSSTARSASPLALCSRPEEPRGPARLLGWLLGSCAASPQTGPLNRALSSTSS
Experimental: [hu 3H]PGD2 was purchased from Perkin Elmer Life Sciences with a specific activity of 100-210 Ci/mmol. All other chemicals were of analytical grade.
HEK cells expressing rhCRTh2/Gα16 were routinely maintained in DMEM containing 10% Foetal Bovine Serum (HyClone), 1 mg/ml geneticin, 2 mM L-glutamine and 1% non-essential amino acids. For the preparation of membranes, the adherent transfected HEKcells were grown to confluence in two layer tissue culture factories (Fisher, catalogue number TKT-170-070E). Maximal levels of receptor expression were induced by addition of […] sodium butyrate for the last 18 hours of culture. The adherent cells were washed once with phosphate buffered saline (PBS, 50 ml per cell factory) and detached by the addition of 50 ml per cell factory of ice-cold membrane homogenisation buffer [20 mM HEPES (pH 7.4), 0.1 mM dithiothreitol, 1 mM EDTA, 0.1 mM phenyl methyl sulphonyl fluoride and 100 μg/ml bacitracin]. […] The final pellet was re-suspended in 4 ml of membrane homogenisation buffer per cell factory used and the protein content determined. […]
All assays were performed in Corning clear bottomed, white 96-well NBS plates (Fisher). […] (The optimum coating concentrations were determined for each batch of membranes) The beads were pelleted by centrifugation (800×g for 7minutes at 4° C.), washed once with assay buffer (50 mM HEPES pH 7.4 containing 5 mM magnesium chloride) and finally re-suspended in assay buffer at a bead concentration of 10 mg/ml.
Each assay contained 20 μl of 6.25 nM [^3H]PGD2, 20 μl membrane saturated SPA beads both in assay buffer and 10 μl of compound solution or 13,14-dihydro-15-keto prostaglandin D2 (DK-PGD2, for determination of non-specific binding, Cayman chemical company). […] The assay plate was incubated at room temperature for 2 hours and counted on a Wallac Microbeta liquid scintillation counter (1 minute per well).

| IC50 [nM] | Structure (SMILES) |
| --- | --- |
| 63.1 | CCS(=O)(=O)c1ccc(-c2nc(C)ccc2OCC(=O)O)c(C)c1 [Example 11, ({2-[4-(Ethylsulfonyl)-2-methylphenyl]-6-methylpyridin-3-yl}oxy)acetic acid] |
| 10 | Cc1nn(S(=O)(=O)N(C)C)cc1-c1cc(C(F)(F)F)ccc1O[C@@H](C)C(=O)O [Example 22, (2S)-2-[2-{1-[(Dimethylamino)sulfonyl]-3-methyl-1H-pyrazol-4-yl}-4-(trifluoromethyl)phenoxy]propanoic acid] |
| 39.8 | CS(=O)(=O)c1ccc(-c2cc(C(F)(F)F)ccc2CCC(=O)O)cc1C(F)(F)F [Example 31, 3-[4′-(Methylsulfonyl)-3′,5-bis(trifluoromethyl)biphenyl-2-yl]propanoic acid] |
